Values of other authors in patent publication US20260034249A1, “COMPOSITIONS AND METHODS FOR MODIFYING FERTILITY” (The Broad Institute, Inc., priority 2023, published 2026).

How the values were obtained:
[1] = tested on: Vim
[2] = biological target: T1, MT2 over MT1 receptor (Homo sapiens, UniProt P49286); settings: selectivity MT2 vs MT1
T1 sequence (P49286 1-362): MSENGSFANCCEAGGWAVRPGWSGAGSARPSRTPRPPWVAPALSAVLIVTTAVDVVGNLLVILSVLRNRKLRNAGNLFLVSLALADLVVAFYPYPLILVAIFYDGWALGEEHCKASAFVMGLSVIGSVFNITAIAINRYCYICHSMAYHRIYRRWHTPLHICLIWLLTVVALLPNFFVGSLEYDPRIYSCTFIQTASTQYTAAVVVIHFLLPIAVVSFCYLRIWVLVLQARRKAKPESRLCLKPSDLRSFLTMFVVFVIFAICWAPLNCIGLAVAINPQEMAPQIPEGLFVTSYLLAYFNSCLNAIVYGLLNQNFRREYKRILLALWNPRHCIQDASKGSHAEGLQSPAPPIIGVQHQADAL

[3] = tested on: TMSB4X

Row | SMILES | Vim expression [1] | further results
1 | Oc1ccc(C=Cc2cc(O)cc(O)c2)cc1 [resveratrol] | Decreases Vim expression | –
2 | C[C@@H]1CC[C@@]2(OC1)O[C@H]1C[C@H]3[C@@H]4CC=C5C[C@@H](O[C@@H]6O[C@H](CO)[C@@H](O[C@@H]7O[C@@H](C)[C@H](O)[C@@H](O)[C@H]7O)[C@H](O)[C@H]6O[C@@H]6O[C@@H](C)[C@H](O)[C@@H](O)[C@H]6O)CC[C@]5(C)[C@H]4CC[C@]3(C)[C@H]1[C@@H]2C [dioscin] | Decreases Vim expression | –
3 | CC(=O)NCCc1c(Cc2ccccc2)[nH]c2ccccc12 [Luzindole] | – | affinity for MT2 over MT1 receptor [2]: 25-fold affinity for MT2 over
4 | COc1cc(C2Oc3cc([C@H]4Oc5cc(O)cc(O)c5C(=O)[C@@H]4O)ccc3OC2CO)ccc1O (some centres unmarked) [Silibin] | Decreases Vim expression | –
5 | C/C1=C/C(=O)O[C@@H]2C[C@@H](CC[C@H](C)/C=C\C=C\CC1)O[C@@](O)([C@@H]1CSC(=O)N1)C2 [Latrunculin A] | – | binding of TMSB4X to actin [3]: Sponge toxin that prevents
